Laboratory results: patent publication US9751865B2, “Dihydro-hydantoin derivatives with herbicidal activity” (SYNGENTA PARTICIPATIONS AG, priority 2013, dated 2017)

Legend:
Type in all cases: in vivo
[1] = tested on: Echinochloa crus-galli; assay: Pre-emergence herbicidal activity, ECHCG; conditions: application pre-emergence, 1000 g/Ha, evaluated after 13 days, scale 0-5
Protocol: (§1) Seeds of a variety of test species were sown in standard soil in pots. After cultivation for one day (pre-emergence) under controlled conditions in a glasshouse (at 24/16° C., day/night; 14 hours light; 65% humidity), the plants were sprayed with an aqueous spray solution derived from the formulation of the technical active ingredient in acetone/water (50:50) solution containing 0.5% Tween 20 (polyoxyethelyene sorbitan monolaurate, CAS RN 9005-64-5). The test plants were then grown in a glasshouse under controlled conditions (at 24/16° C., day/night; 14 hours light; 65% humidity) and watered twice daily. After 13 days, the test was evaluated (5=total damage to plant; 0=no damage to plant).

[2] = tested on: Abutilon theophrasti; assay: Pre-emergence herbicidal activity, ABUTH; parameters: key: 5=total damage to plant; 0=no damage to plant; conditions: application pre-emergence, 1000 g/Ha, evaluated after 13 days, scale 0-5
Protocol: as §1

[3] = tested on: Echinochloa crus-galli; assay: Post-emergence herbicidal activity, ECHCG; parameters: key: 5=total damage to plant; 0=no damage to plant; conditions: application post-emergence, 1000 g/Ha, evaluated after 13 days, scale 0-5
Protocol: (§2) Seeds of a variety of test species were sown in standard soil in pots. After 8 days cultivation (post-emergence) under controlled conditions in a glasshouse (at 24/16° C., day/night; 14 hours light; 65% humidity), the plants were sprayed with an aqueous spray solution derived from the formulation of the technical active ingredient in acetone/water (50:50) solution containing 0.5% Tween 20 (polyoxyethelyene sorbitan monolaurate, CAS RN 9005-64-5). The test plants were then grown in a glasshouse under controlled conditions (at 24/16° C., day/night; 14 hours light; 65% humidity) and watered twice daily. After 13 days, the test was evaluated (5=total damage to plant; 0=no damage to plant).

[4] = tested on: Alopecurus myosuroides; assay: Pre-emergence herbicidal activity, ALOMY; conditions: application pre-emergence, 1000 g/Ha, evaluated after 13 days, scale 0-5
Protocol: as §1

[5] = tested on: Alopecurus myosuroides; assay: Post-emergence herbicidal activity, ALOMY; parameters: key: 5=total damage to plant; 0=no damage to plant; conditions: application post-emergence, 1000 g/Ha, evaluated after 13 days, scale 0-5
Protocol: as §2

[6] = tested on: Setaria faberi; assay: Post-emergence herbicidal activity, SETFA; parameters: key: 5=total damage to plant; 0=no damage to plant; conditions: application post-emergence, 1000 g/Ha, evaluated after 13 days, scale 0-5
Protocol: as §2

[7] = tested on: Zea mays; assay: Post-emergence herbicidal activity, ZEAMX; parameters: key: 5=total damage to plant; 0=no damage to plant; conditions: application post-emergence, 1000 g/Ha, evaluated after 13 days, scale 0-5
Protocol: as §2

[8] = tested on: Setaria faberi; assay: Pre-emergence herbicidal activity, SETFA; conditions: application pre-emergence, 1000 g/Ha, evaluated after 13 days, scale 0-5
Protocol: as §1

[9] = tested on: Abutilon theophrasti; assay: Post-emergence herbicidal activity, ABUTH; parameters: key: 5=total damage to plant; 0=no damage to plant; conditions: application post-emergence, 1000 g/Ha, evaluated after 13 days, scale 0-5
Protocol: as §2

[10] = tested on: Zea mays; assay: Pre-emergence herbicidal activity, ZEAMX; conditions: application pre-emergence, 1000 g/Ha, evaluated after 13 days, scale 0-5
Protocol: as §1

[11] = tested on: Amaranthus retroflexus; assay: Pre-emergence herbicidal activity, AMARE; parameters: key: 5=total damage to plant; 0=no damage to plant; conditions: application pre-emergence, 1000 g/Ha, evaluated after 13 days, scale 0-5
Protocol: as §1

[12] = tested on: Amaranthus retroflexus; assay: Post-emergence herbicidal activity, AMARE; parameters: key: 5=total damage to plant; 0=no damage to plant; conditions: application post-emergence, 1000 g/Ha, evaluated after 13 days, scale 0-5
Protocol: as §2

C[C@@H]1C(O)N(c2cc(C(F)(F)F)n(C)n2)C(=O)N1C (stereo partly drawn) [Compound A15, (5R)-4-hydroxy-1,5-dimethyl-3-[1-methyl-5-(trifluoromethyl)pyrazol-3-yl]imidazolidin-2-one]
1: ZEAMX damage score [10]
5: ABUTH damage score [2] | ECHCG damage score [3] | ALOMY damage score [5] | SETFA damage score [6] | ZEAMX damage score [7] | ABUTH damage score [9] | AMARE damage score [11] | AMARE damage score [12]
3: SETFA damage score [8]
2: ECHCG damage score [1] | ALOMY damage score [4]

CC1C(O)N(c2nn(C)c(C(C)(C)C)c2C#N)C(=O)N1C (stereo not drawn) [Compound A6]
4: ECHCG damage score [3] | ALOMY damage score [5]
5: ABUTH damage score [2] | SETFA damage score [6] | ABUTH damage score [9] | AMARE damage score [12]
1: ALOMY damage score [4] | ZEAMX damage score [10]
2: ECHCG damage score [1] | ZEAMX damage score [7] | SETFA damage score [8] | AMARE damage score [11]
